# Legend:
# Test in all cases: selective drug sensitivity score (sDSS, relative to normal bone marrow) (sDSS (score)); higher = more potent and effective on the cell line relative to normal bone marrow cells
# Conditions in all cases: 72 h
# COG-LL-402h = test system: COG-LL-402h
# KOPN-8 = test system: KOPN-8
# MN-60 = test system: MN-60
# HPB-ALL = test system: HPB-ALL
# ALL-PO = test system: ALL-PO
# P12-ICHIKAWA = test system: P12-ICHIKAWA
# NALL-1 = test system: NALL-1
# DND-41 = test system: DND-41
# COG-LL-332h = test system: COG-LL-332h
# PEER = test system: PEER
# NALM-6 = test system: NALM-6
# JURKAT = test system: JURKAT
# HAL-01 = test system: HAL-01
# P30-OHKUBO = test system: P30-OHKUBO
# COG-LL-319h = test system: COG-LL-319h
# TMD5 = test system: TMD5
# COG-LL-394h = test system: COG-LL-394h
# REH = test system: REH
# KASUMI-2 = test system: KASUMI-2
# MHH-CALL-4 = test system: MHH-CALL-4
# 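Further: ALL cell lines in 384-well plates, five doses spanning 10,000-fold, each plate scaled between vehicle and 100 µmol/L benzalkonium chloride controls, sDSS an adapted area-under-curve metric.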
SMILES,selective drug sensitivity score (COG-LL-402h),selective drug sensitivity score (KOPN-8),selective drug sensitivity score (MN-60),selective drug sensitivity score (HPB-ALL),selective drug sensitivity score (ALL-PO),selective drug sensitivity score (P12-ICHIKAWA),selective drug sensitivity score (NALL-1),selective drug sensitivity score (DND-41),selective drug sensitivity score (COG-LL-332h),selective drug sensitivity score (PEER),selective drug sensitivity score (NALM-6),selective drug sensitivity score (JURKAT),selective drug sensitivity score (HAL-01),selective drug sensitivity score (P30-OHKUBO),selective drug sensitivity score (COG-LL-319h),selective drug sensitivity score (TMD5),selective drug sensitivity score (COG-LL-394h),selective drug sensitivity score (REH),selective drug sensitivity score (KASUMI-2),selective drug sensitivity score (MHH-CALL-4)
CC1(C)C(C(=O)Nc2ccc(S(=O)(=O)c3ccc(NC(=O)C4C(C)(C)C4(C)C)cc3)cc2)C1(C)C [BRD7116] (top concentration 10000 nM),-0.24,-0.24,-0.04,3.26,-0.24,0.66,-0.24,-0.24,-0.24,-0.14,1.96,1.76,3.36,4.46,1.26,0.66,3.16,2.86,-0.24,-0.24
CCCCCCCCc1ccc(CCC(N)(CO)CO)cc1 [Fingolimod] (top concentration 10000 nM),-0.92,3.18,1.28,1.68,2.28,-0.92,6.18,1.28,1.38,1.78,1.58,-1.12,1.88,1.38,0.28,0.48,1.68,-1.52,-0.82,1.58
CN1CCN(C(=O)c2ccc3cc(CCNc4ncnc5ccc(C#N)cc45)ccc3c2)CC1 [Senexin_B] (top concentration 1000 nM),-0.4,-0.6,1.4,-0.6,-0.6,0.4,-0.6,-0.6,0.6,1.8,0.9,3.1,-0.6,0.4,-0.6,-0.6,1,-0.6,-0.6,-0.6
O=C(Nc1cnn2ccc(N3CCC[C@@H]3c3cc(F)ccc3F)nc12)N1CC[C@H](O)C1 [Larotrectinib] (top concentration 1000 nM),2.78,-0.62,-0.62,4.18,-0.62,-0.62,-0.62,-0.62,-0.62,-0.62,0.48,-0.62,0.68,-0.52,3.78,-0.62,-0.62,-0.62,-0.62,-0.62
O=C(O)CC1CC(c2ccccc2)=NO1 (stereo not given) [VGX-1027] (top concentration 10000 nM),-0.04,-0.04,-0.04,-0.04,-0.04,-0.04,-0.04,-0.04,-0.04,-0.04,-0.04,-0.04,-0.04,-0.04,-0.04,-0.04,-0.04,-0.04,-0.04,-0.04
CCS(=O)(=O)Nc1ccc(Oc2ccc(F)cc2F)c(-c2cn(C)c(=O)c3[nH]ccc23)c1 [Mivebresib] (top concentration 10000 nM),12.7,16.6,8.2,1.9,6.1,9.9,0.6,1.5,-3.9,1.1,6,3.55e-15,1.1,15.3,7.7,-5.7,1.6,-1.8,-14.8,12.5
CCN1CCN(c2ccc(Nc3cc(N(C)C(=O)Nc4c(Cl)c(OC)cc(OC)c4Cl)ncn3)cc2)CC1 [Infigratinib] (top concentration 1000 nM),0,0,0,0,0,0,0,0,0,0,0,0,0,0,0,0,0,0,0,0
CCc1c(C(=O)C(N)=O)c2c(OCC(=O)O)cccc2n1Cc1ccccc1 [Varespladib] (top concentration 10000 nM),6.36,-0.84,-0.84,-0.84,-0.84,-0.84,-0.84,-0.84,-0.64,-0.84,-0.84,-0.74,-0.84,-0.84,-0.84,-0.84,-0.84,-0.84,-0.84,3.56
